# Experimental data published in US6451814B1, “Heterocyclic β-3 adrenergic receptor agonists” (Wyeth, priority 2000, dated 2002).
# pEC50: −log10 of the molar value. Several values for one entry are separate records, joined by “and”; a condition that tells them apart may be missing. Identical values can stand only once. Like-named read-outs stand apart in the source and are kept apart here.
# Target: T1, human β3-adrenergic receptor (Homo sapiens, UniProt P13945)
# T1 construct: Full length β3 AR clones (402 amino acids) containing the last 6 amino acids of hβ3—AR are prepared; expressed in transfected cells; host or cells: CHO cells
# Assay: cAMP response (SPA kit) in CHO cells transfected with human β3 adrenergic receptor
# Assay type: cell-based
# Settings: for pEC50: read-out: EC50(β3); for IA(β3): maximal response of compound compared to maximal response of isoproterenol at 10^-5 M, CHO cells, human β3-AR
# [1] = CHO cells expressing human β3-AR, 10^-9 M to 10^-5 M, 30 min at 37° C., cAMP by SPA
# T1 sequence (P13945 whole entry): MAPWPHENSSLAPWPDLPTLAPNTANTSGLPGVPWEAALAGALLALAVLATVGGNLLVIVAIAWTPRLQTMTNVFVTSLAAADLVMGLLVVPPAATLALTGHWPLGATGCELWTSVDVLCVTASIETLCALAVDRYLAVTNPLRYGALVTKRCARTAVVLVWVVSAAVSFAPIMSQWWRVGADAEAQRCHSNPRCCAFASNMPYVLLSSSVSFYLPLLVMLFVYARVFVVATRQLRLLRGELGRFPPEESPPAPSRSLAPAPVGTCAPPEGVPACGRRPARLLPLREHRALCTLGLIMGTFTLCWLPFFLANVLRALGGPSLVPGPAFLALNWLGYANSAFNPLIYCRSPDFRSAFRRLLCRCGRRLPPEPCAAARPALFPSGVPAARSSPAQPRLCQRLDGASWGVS
Compound,pEC50 [1],IA(β3),"EC50 (EC50(β3, μM), CHO cells expressing human β3-AR, 10^-9 M to 10^-5 M, 30 min at 37° C., cAMP by SPA) [µM]"
1H-Indole-2-carboxylic Acid (4-{2-[(2S)-2-hydroxy-3-(4-hydroxy-phenoxy)-propylamino]-ethyl}-phenyl)-amide [Example 91],7.29,1,–
"CCNC(=O)N1CCC(Nc2ccc(CCNC[C@H](O)COc3ccc(O)cc3)cc2)CC1 [Example 10, 4-(4-{2-[(2S)-2-Hydroxy-3-(4-hydroxy-phenoxy)-propylamino]-ethyl}-phenylamino)-piperidine-1-carboxylic Acid Ethylamide]",7.37,0.85,–
"CS(=O)(=O)Nc1cc([C@@H](O)CNCCc2ccc(NC3CCN(C(=O)c4ccc(C(=O)O)cc4)CC3)cc2)ccc1O [Example 105, 4-[4-(4-{2-[(2R)-2-Hydroxy-2-(4-hydroxy-3-methanesulfonylamino-phenyl)-ethylamino]-ethyl}-phenylamino)-piperidine-1-carbonyl]-benzoic Acid]",7.43,1,–
"O=C(NCc1ccc(Cl)c(Cl)c1)N1CCC(Nc2ccc(CCNC[C@H](O)COc3ccc(O)cc3)cc2)CC1 [Example 21, 4-(4-{2-[(2S)-2-Hydroxy-3-(4-hydroxy-phenoxy)-propylamino]-ethyl}-phenylamino)-piperidine-1-carboxylic Acid 3,4-dichloro-benzylamide]",7.52,1,–
"O=C(CCNC(=O)N1CCC(Nc2ccc(CCNC[C@H](O)COc3ccc(O)cc3)cc2)CC1)N1CCOCC1 [Example 90, 4-(4-{2-[(2S)-2-Hydroxy-3-(4-hydroxy-phenoxy)-propylamino]-ethyl}-phenylamino)-piperidine-1-carboxylic Acid (3-morpholin-4-yl-3-oxo-propyl)-amide]",7.11,0.73,–
"O=C(NCc1ccc(F)cc1)N1CCC(S(=O)(=O)c2ccc(CCNC[C@H](O)COc3ccc(O)cc3)cc2)CC1 [Example 45, 4-(4-{2-[(2S)-2-Hydroxy-3-(4-hydroxy-phenoxy)-propylamino]-ethyl}-benzenesulfonyl)-piperidine-1-carboxylic Acid 4-fluoro-benzylamide]",7.19,1.07,–
"O=C(NCCCC1CCCC1)N1CCC(Nc2ccc(CCNC[C@H](O)COc3ccc(O)cc3)cc2)CC1 [Example 12, 1-4-(4-{2-[(2S)-2-Hydroxy-3-(4-hydroxy-phenoxy)-propylamino]-ethyl}-phenylamino)-piperidine-1-carboxylic Acid (3-cyclopentyl-propyl)-amide]",7.30,–,–
"COC(=O)[C@@H]1CCCN1C(=O)N1CCC(Nc2ccc(CCNC[C@H](O)c3ccc(O)c(NS(C)(=O)=O)c3)cc2)CC1 [Example 77, 1-[[4-[[4-[2-[[(2R)-2-Hydroxy-2-[4-hydroxy[(methylsulfonyl)amino]phenyl]ethyl]amino]ethyl]phenyl]amino]-1-piperidinyl]carbonyl]-L-proline, Methyl Ester]",7.55,0.99,–
"O=C(NCC1(c2ccccc2)CCCC1)N1CCC(S(=O)(=O)c2ccc(CCNC[C@H](O)COc3ccc(O)cc3)cc2)CC1 [Example 46, 4-(4-{2-[(2S)-2-Hydroxy-3-(4-hydroxy-phenoxy)-propylamino]-ethyl}-benzenesulfonyl)-piperidine-1-carboxylic Acid (1-phenyl-cyclopentylmethyl)-amide]",6.79,0.82,–
"O=C(NCc1ccc(F)cc1)N1CCC(Nc2ccc(CCNC[C@H](O)COc3ccc(O)cc3)cc2)CC1 [Example 1, 4-(4-{2-[(2S)-2-Hydroxy-3-(4-hydroxy-phenoxy)-propylamino]-ethyl}-phenylamino)-piperidine-1-carboxylic Acid 4-fluoro-benzylamide]",7.49 and 7.44 and 7.30,0.95 and 0.71 and 0.91,–
"CCCCCCCCNC(=O)N1CCC(C(=O)N2CCC(Nc3ccc(CCNC[C@H](O)COc4ccc(O)cc4)cc3)CC2)CC1 [Example 92, 4-[4-(4-{2-[(2S)-2-Hydroxy-3-(4-hydroxy-phenoxy)-propylamino]-ethyl}-phenylamino)-piperidine-1-carbonyl]-piperidine-1-carboxylic Acidoctylamide]",8.00,0.92,–
"COc1c(C(=O)N2CCC(Nc3ccc(CCNC[C@H](O)COc4ccc(O)cc4)cc3)CC2)sc2ccccc12 [Example 97, [4-(4-{2-[(2S)-2-Hydroxy-3-(4-hydroxy-phenoxy)-propylamino]-ethyl}-phenylamino)-piperidin-1-yl]-(3-methoxy-benzo[b]thiophen-2-yl)-methanone]",7.47,0.79,–
"O=C(NCc1ccc(O)cc1F)N1CCC(Nc2ccc(CCNCC(O)COc3ccc(O)cc3)cc2)CC1 (stereo not shown) [Example 83, 4-(4-{2-[2-Hydroxy-3-(4-hydroxy-phenoxy)-propylamino]-ethyl}-phenylamino)-piperidine-1-carboxylic Acid 2-fluoro-4-hydroxy-benzylamide]",–,0.88,–
"CS(=O)(=O)Nc1cc([C@@H](O)CNCCc2ccc(NC3CCN(c4nc(-c5ccccc5)cs4)CC3)cc2)ccc1O [Example 118, (R)-N-{2-Hydroxy-5-[1-hydroxy-2-(2-{4-[1-(4-phenyl-thiazol-2-yl)-piperidin-4-ylamino]-phenyl}-ethylamino)-ethyl]-phenyl}-methanesulfonamide]",7.66,0.96,–
"O=C(c1n[nH]c2ccccc12)N1CCC(Nc2ccc(CCNC[C@H](O)COc3ccc(O)cc3)cc2)CC1 [Example 102, [4-(4-{2-[(2S)-2-Hydroxy-3-(4-hydroxy-phenoxy)-propylamino]-ethyl}-phenylamino)-piperidin-1-yl]-(1H-indazol-3-yl)-methanone]",8.05,0.95,–
"CC(=O)Nc1ccc(S(=O)(=O)N2CCC(Nc3ccc(CCNC[C@H](O)COc4ccc(O)cc4)cc3)CC2)cc1 [Example 114, N-{4-[4-(4-{2-[(2S)-2-Hydroxy-3-(4-hydroxy-phenoxy)-propylamino]-ethyl}-phenylamino)-piperidine-1-sulfonyl]-phenyl}-acetamide]",7.48,1.1,–
"O=C(c1cc2cc(Br)ccc2[nH]1)N1CCC(Nc2ccc(CCNC[C@H](O)COc3ccc(O)cc3)cc2)CC1 [Example 96, (5-Bromo-1H-indol-2-yl)-[4-(4-{2-[(2S)-2-hydroxy-3-(4-hydroxy-phenoxy)-propylamino]-ethyl}-phenylamino)-piperidin-1-yl]-methanone]",6.51,0.83,–
"CCCCCCCCNC(=O)N1CCC(Nc2ccc(OCCNC[C@H](O)COc3ccc(O)cc3)cc2)CC1 [Example 73, 4-(4-{2-[(2S)-2-Hydroxy-3-(4-hydroxy-phenoxy)-propylamino]-ethoxy}-phenylamino)-piperidine-1-carboxylic Acid Octylamide]",7.15,0.8,–
"CN(C)C(=O)Oc1ccc(CNC(=O)N2CCC(Nc3ccc(CCNC[C@H](O)COc4ccc(O)cc4)cc3)CC2)c(F)c1 [Example 84, Dimethyl-carbamic Acid 3-fluoro-4-({[4-(4-{2-[(2S)-2-hydroxy-3-(4-hydroxy-phenoxy)-propylamino]-ethyl}-phenlamino)-piperidine-1-carbonyl]-amino}-methyl)-phenyl Ester]",–,0.75,0.096
"COc1cccc(CCNC(=O)N2CCC(Nc3ccc(CCNC[C@H](O)COc4ccc(O)cc4)cc3)CC2)c1 [Example 6, 4-(4-{2-[(2S)-2-Hydroxy-3-(4-hydroxy-phenoxy)-propylamino]-ethyl}-phenylamino)-piperidine-1-carboxylic Acid [2-(3-methoxy-phenyl)-ethyl]-amide]",6.97,1.21,–
"CCCCCCCCNC(=O)N1CCC(Nc2ccc(CCNC[C@H](O)COc3ccc(O)c(NS(C)(=O)=O)c3)cc2)CC1 [Example 66, 4-(4-{2-[(2S)-2-Hydroxy-3-(4-hydroxy-3-methanesulfonylamino-phenoxy)-propylamino]-ethyl}-phenylamino)-piperidine-1-carboxylic Acidoctylamide]",6.70,0.99,–
"O=C(O)COc1ccc(NC(=O)N2CCC(Nc3ccc(CCNC[C@H](O)COc4ccc(O)cc4)cc3)CC2)cc1 [Example 58, (4-{[4-(4-{2-[(2S)-2-Hydroxy-3-(4-hydroxy-phenoxy)-propylamino]-ethyl}-phenylamino)-piperidine-1-carbonyl]-amino}-phenoxy)-acetic Acid]",6.49,1.61,–
"COc1ccc2[nH]c(C(=O)N3CCC(Nc4ccc(CCNCC(O)COc5ccc(O)cc5)cc4)CC3)cc2c1 (stereo not shown) [Example 94, [4-(4-{2-[2-Hydroxy-3-(4-hydroxy-phenoxy)-propylamino]-ethyl}-phenylamino)-piperidin-1-yl]-(5-methoxy-1H-indol-2-yl)-methanone]",8.00 and 7.27,0.59 and 0.78,–
4-(4-{2-[(2S)-2-Hydroxy-3-(4-hydroxy-phenoxy)-propylamino]-ethyl}-phenylamino)-piperidine-1-carboxylic Acid 4-fluoro-benzylamide [Example 53],–,1.17 and 1.5,–
"COc1cccc(CNC(=O)N2CCC(Nc3ccc(CCNC[C@H](O)COc4ccc(O)cc4)cc3)CC2)c1 [Example 79, 4-(4-{2-[(2S)-2-Hydroxy-3-(4-hydroxy-phenoxy)-propylamino]-ethyl}-phenylamino)-piperidine-1-carboxylic acid 3-methoxy-benzylamide]",7.39,0.8,–
"CCCCCCNC(=O)N1CCC(S(=O)(=O)c2ccc(CCNC[C@H](O)COc3ccc(O)cc3)cc2)CC1 [Example 44, 4-(4-{2-[(2S)-2-Hydroxy-3-(4-hydroxy-phenoxy)-propylamino]-ethyl}-benzenesulfonyl)-piperidine-1-carboxylic Acid Hexylamide]",7.44,0.99,–
